Test results as given in patent US20190374533A1, “COMPOUNDS AND METHODS FOR INHIBITING NHE-MEDIATED ANTIPORT IN THE TREATMENT OF DISORDERS ASSOCIATED WITH FLUID RETENTION OR SALT OVERLOAD AND GASTROINTESTINAL TRACT DISORDERS” (Ardelyx, Inc., priority 2008, published 2019).
Where two headings read alike, the source gives them in different places. One block for each compound: values may come before it.

Tests used:
[1] = Determination of compound Cmax and AUC; assay type: in vivo; conditions: rat; Sprague-Dawley rats, oral gavage, serum 0.5-4 h; actual oral dose (mg/kg) given
Experimental: Sprague-Dawley rats were orally gavaged with test article (2.5 mg/kg) and serum was collected at 0.5, 1, 2 and 4 h. Serum samples were treated with acetonitrile, precipitated proteins removed by centrifugation and supernatants analyzed by LC/MS/MS and compared against a standard curve to determine compound concentration. All compounds were orally dosed at the dosage shown, and pharmacokinetic parameters determined as described in the text.

rat NHE-3 = target: T1, rat NHE-3 (Rattus norvegicus, UniProt P26433); test: Cell-based assay of NHE-3 activity (Pharmacological Test Example 1); conditions: for IC50: read-out: rat NHE-3 Average pIC50 (converted)
T1 construct: expressed in transfected cells; host or cells: Opossum kidney (OK) cells (ATCC), electroporated
T1 sequence (P26433 29-831): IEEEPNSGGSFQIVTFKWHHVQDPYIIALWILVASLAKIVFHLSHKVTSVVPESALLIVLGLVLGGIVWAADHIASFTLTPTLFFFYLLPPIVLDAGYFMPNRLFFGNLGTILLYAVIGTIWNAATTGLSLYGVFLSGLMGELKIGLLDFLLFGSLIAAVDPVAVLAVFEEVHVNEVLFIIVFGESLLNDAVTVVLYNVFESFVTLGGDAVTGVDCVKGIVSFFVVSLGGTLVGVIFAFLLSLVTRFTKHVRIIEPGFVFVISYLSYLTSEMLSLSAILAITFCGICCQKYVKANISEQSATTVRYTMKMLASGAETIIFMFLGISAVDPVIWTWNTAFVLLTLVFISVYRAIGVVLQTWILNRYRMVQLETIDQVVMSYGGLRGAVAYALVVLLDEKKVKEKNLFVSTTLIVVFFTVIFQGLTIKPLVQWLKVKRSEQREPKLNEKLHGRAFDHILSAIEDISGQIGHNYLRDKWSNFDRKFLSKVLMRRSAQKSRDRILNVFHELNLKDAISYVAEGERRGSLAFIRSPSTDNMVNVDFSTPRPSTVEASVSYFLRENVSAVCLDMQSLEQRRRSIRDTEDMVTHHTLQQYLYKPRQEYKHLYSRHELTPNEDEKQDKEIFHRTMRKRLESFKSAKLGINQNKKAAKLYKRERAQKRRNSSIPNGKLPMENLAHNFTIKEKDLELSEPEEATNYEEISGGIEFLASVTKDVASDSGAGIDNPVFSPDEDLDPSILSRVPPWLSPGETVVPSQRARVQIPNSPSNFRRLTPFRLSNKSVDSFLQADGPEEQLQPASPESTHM
Experimental: Rat NHE-3-mediated Na^+-dependent H^+ antiport was measured using a modification of the pH sensitive dye method originally reported by Tsien (Proc. Natl. Acad. Sci. USA. (1984) 81(23): 7436-7440). Opossum kidney (OK) cells were obtained from the ATCC and propagated per their instructions. The rat NHE-3 gene was introduced into OK cells via electroporation, seeded into 96 well plates and grown overnight. Medium was aspirated from the wells, cells were washed twice with NaCl-HEPES buffer (100 mM NaCl, 50 mM HEPES, 10 mM glucose, 5 mM KCl, 2 mM CaCl2, 1 mM MgCl2, pH 7.4), then incubated for 30 min at room temperature with NH4Cl-HEPES buffer (20 mM NH4Cl, 80 mM NaCl, 50 mM HEPES, 5 mM KCl, 2 mM CaCl2), 1 mM MgCl2, pH 7.4) containing 5 uM BCECF-AM (Invitrogen). Cells were washed twice with Ammonium free, Nat-free HEPES (100 mM choline, 50 mM HEPES, 10 mM glucose, 5 mM KCl, 2 mM CaCl2), 1 mM MgCl2, pH 7.4) and incubated in the same buffer for 10 minutes at room temperature to lower intracellular pH. […] Initial rates were plotted as the average 3-6 replicates, and pIC50 values were estimated using GraphPad Prism.

[2] = OK cells expressing rat NHE-3, 0-30 uM test compound, 5 uM EIPA

Compound: CN1Cc2c(Cl)cc(Cl)cc2C(c2ccc(S(=O)(=O)NCC(=O)NCC(=O)NCC(=O)NCCCCNC(=O)CNC(=O)CNC(=O)CNS(=O)(=O)c3ccc(C4CN(C)Cc5c(Cl)cc(Cl)cc54)cc3)cc2)C1 (stereo not shown) [Example 204, N,N′-(butane-1,4-diyl)bis(2-(2-(2-(4-(6,8-dichloro-2-methyl-1,2,3,4-tetrahydroisoquinolin-4-yl)phenylsulfonamido)acetamido)acetamido)acetamide)]
AUC [1]: < 2 ng·h/mL
Cmax [1]: < 2 ng/mL
rat NHE-3 Average pIC50 (rat NHE-3; [2]): >7

Compound: C/C(=C\c1cc(F)c(Oc2ccc(S(=O)(=O)NCCOCCOCCOCCOCCOCCOCCN)cc2)c(F)c1)C(=O)N=C(N)N [Example 211, (E)-3-(4-(4-(N-(20-amino-3,6,9,12,15,18-hexaoxaicosyl)sulfamoyl)phenoxy)-3,5-difluorophenyl)-N-(diaminomethylene)-2-methylacrylamide]
AUC [1]: < 3 ng·h/mL
Cmax [1]: < 2.3 ng/mL
rat NHE-3 Average pIC50 (rat NHE-3; [2]): 6 to 7

Compound: C/C(=C\c1cc(F)c(Oc2ccc(S(=O)(=O)NCCOCCOCCOCCNC(=O)[C@H](O)[C@@H](O)C(=O)NCCOCCOCCOCCNS(=O)(=O)c3ccc(Oc4c(F)cc(/C=C(\C)C(=O)N=C(N)N)cc4F)cc3)cc2)c(F)c1)C(=O)N=C(N)N [Example 212, (2R,3R)—N1,N4-bis(2-(2-(2-(2-(4-(4-((E)-3-(diaminomethyleneamino)-2-methyl-3-oxoprop-1-enyl)-2,6-difluorophenoxy)phenylsulfonamido)ethoxy)ethoxy)ethoxy)ethyl)-2,3-dihydroxysuccinamide]
AUC [1]: < 4.4 ng·h/mL
Cmax [1]: < 2.7 ng/mL
IC50 (rat NHE-3; [2]): < 100 nM

Compound: CN1Cc2c(Cl)cc(Cl)cc2C(c2cccc(S(=O)(=O)NCCOCCOCCOCCNC(=O)CN(CC(=O)NCCOCCOCCOCCNS(=O)(=O)c3cccc(C4CN(C)Cc5c(Cl)cc(Cl)cc54)c3)CC(=O)NCCOCCOCCOCCNS(=O)(=O)c3cccc(C4CN(C)Cc5c(Cl)cc(Cl)cc54)c3)c2)C1 (stereo not shown) [Example 213, 2,2′,2″-nitrilotris(N-(2-(2-(2-(2-(3-(6,8-dichloro-2-methyl-1,2,3,4-tetrahydroisoquinolin-4-yl)phenylsulfonamido)ethoxy)ethoxy)ethoxy)ethyl)acetamide)]
AUC [1]: < 5 ng·h/mL
Cmax [1]: < 5 ng/mL
rat NHE-3 Average pIC50 (rat NHE-3; [2]): 6 to 7

Compound: CN1Cc2c(Cl)cc(Cl)cc2C(c2cccc(S(=O)(=O)NCCOCCOCCOCCNC(=O)c3cc(C(=O)NCCOCCOCCOCCNS(=O)(=O)c4cccc(C5CN(C)Cc6c(Cl)cc(Cl)cc65)c4)cc(C(=O)NCCOCCOCCOCCNS(=O)(=O)c4cccc(C5CN(C)Cc6c(Cl)cc(Cl)cc65)c4)c3)c2)C1 (stereo not shown) [Example 215, N1,N3,N5-tris(2-(2-(2-(2-(3-(6,8-dichloro-2-methyl-1,2,3,4-tetrahydroisoquinolin-4-yl)phenylsulfonamido)ethoxy)ethoxy)ethoxy)ethyl)benzene-1,3,5-tricarboxamide]
AUC [1]: < 2 ng·h/mL
Cmax [1]: < 2 ng/mL
rat NHE-3 Average pIC50 (rat NHE-3; [2]): >7

Compound: CN1Cc2c(Cl)cc(Cl)cc2C(c2cccc(S(=O)(=O)NCCOCCOCCOCCOCCOCCOCCOCCOCCOCCOCCNC(=O)CCOCCOCCOCCOCCOCCOCCOCCOCCOCCC(=O)NCCOCCOCCOCCOCCOCCOCCOCCOCCOCCOCCNS(=O)(=O)c3cccc(C4CN(C)Cc5c(Cl)cc(Cl)cc54)c3)c2)C1 (stereo not shown) [Example 217, N1,N31-bis(32-(3-(6,8-dichloro-2-methyl-1,2,3,4-tetrahydroisoquinolin-4-yl)phenylsulfonamido)-3,6,9,12,15,18,21,24,27,30-decaoxadotriacontyl)-4,7,10,13,16,19,22,25,28-nonaoxahentriacontane-1,31-diamide]
AUC [1]: < 10 ng·h/mL
Cmax [1]: < 10 ng/mL
rat NHE-3 Average pIC50 (rat NHE-3; [2]): 6 to 7

Compound: CN1Cc2c(Cl)cc(Cl)cc2C(c2cccc(S(=O)(=O)NCCOCCOCCOCCNC(=O)c3ccccc3C(=O)NCCOCCOCCOCCNS(=O)(=O)c3cccc(C4CN(C)Cc5c(Cl)cc(Cl)cc54)c3)c2)C1 (stereo not shown) [Example 230, N1,N2-bis(2-(2-(2-(2-(3-(6,8-dichloro-2-methyl-1,2,3,4-tetrahydroisoquinolin-4-yl)phenylsulfonamido)ethoxy)ethoxy)ethoxy)-ethyl)phthalamide]
AUC [1]: < 5 ng·h/mL
Cmax [1]: < 5 ng/mL
rat NHE-3 Average pIC50 (rat NHE-3): >7

Compound: CN1Cc2c(Cl)cc(Cl)cc2C(c2ccc(S(=O)(=O)NCCOCCOCCNC(=O)c3ccc(C(=O)NCCOCCOCCNS(=O)(=O)c4ccc(C5CN(C)Cc6c(Cl)cc(Cl)cc65)cc4)cc3)cc2)C1 (stereo not shown) [Example 231, N1,N4-bis(2-(2-(2-(4-(6,8-dichloro-2-methyl-1,2,3,4-tetrahydroisoquinolin-4-yl)phenylsulfonamido)ethoxy)ethoxy)ethyl)terephthalamide]
AUC [1]: < 3 ng·h/mL
Cmax [1]: < 2.5 ng/mL
rat NHE-3 Average pIC50 (rat NHE-3): <5.0

Compound: CN1Cc2c(Cl)cc(Cl)cc2C(c2ccc(S(=O)(=O)NCCOCCOCCNC(=O)NCCOCCOCCNS(=O)(=O)c3ccc(C4CN(C)Cc5c(Cl)cc(Cl)cc54)cc3)cc2)C1 (stereo not shown) [Example 232, N,N′-(10-oxo-3,6,14,17-tetraoxa-9,11-diazanonadecane-1,19-diyl)bis(4-(6,8-dichloro-2-methyl-1,2,3,4-tetrahydroisoquinolin-4-yl)benzenesulfonamide)]
AUC [1]: < 2 ng·h/mL
Cmax [1]: < 2 ng/mL
rat NHE-3 Average pIC50 (rat NHE-3): <5.0

Compound: CN1Cc2c(Cl)cc(Cl)cc2C(c2ccc(S(=O)(=O)NCCOCCOCCOCCNC(=O)c3ccc(C(=O)NCCOCCOCCOCCNS(=O)(=O)c4ccc(C5CN(C)Cc6c(Cl)cc(Cl)cc65)cc4)cc3)cc2)C1 (stereo not shown) [Example 233, N1,N4-bis(2-(2-(2-(2-(4-(6,8-dichloro-2-methyl-1,2,3,4-tetrahydroisoquinolin-4-yl)phenylsulfonamido)ethoxy)ethoxy)ethoxy)ethyl)terephthalamide]
AUC [1]: < 6.8 ng·h/mL
Cmax [1]: < 2.6 ng/mL
rat NHE-3 Average pIC50 (rat NHE-3): <5.0

Further lines, results first:

AUC [1]: < 5.3 ng·h/mL
Cmax [1]: < 3.5 ng/mL
IC50 (rat NHE-3; [2]): 100 to 1000 nM
Compound: CN1Cc2c(Cl)cc(Cl)cc2[C@H](c2ccc(S(=O)(=O)NCCOCCOCCOCCNC(=O)C(O)C(O)C(=O)NCCOCCOCCOCCNS(=O)(=O)c3ccc([C@@H]4CN(C)Cc5c(Cl)cc(Cl)cc54)cc3)cc2)C1 (single isomer, unassigned) [Example 225, N1,N4-bis(2-(2-(2-(2-(4-((S or R)-6,8-dichloro-2-methyl-1,2,3,4-tetrahydroisoquinolin-4-yl)phenylsulfonamido)ethoxy)ethoxy)ethoxy)ethyl)-2,3-dihydroxysuccinamide]

AUC [1]: < 2 ng·h/mL
Cmax [1]: < 2 ng/mL
rat NHE-3 Average pIC50 (rat NHE-3; [2]): >7
Compound: CN1Cc2c(Cl)cc(Cl)cc2C(c2ccc(S(=O)(=O)NCCOCCOCCNC(=O)C(O)C(O)C(=O)NCCOCCOCCNS(=O)(=O)c3ccc(C4CN(C)Cc5c(Cl)cc(Cl)cc54)cc3)cc2)C1 (stereo not shown) [Example 205, N1,N4-bis(2-(2-(2-(4-(6,8-dichloro-2-methyl-1,2,3,4-tetrahydroisoquinolin-4-yl)phenylsulfonamido)ethoxy)ethoxy)ethyl)-2,3-dihydroxysuccinamide]

AUC [1]: < 5 ng·h/mL
Cmax [1]: < 5 ng/mL
rat NHE-3 Average pIC50 (rat NHE-3; [2]): >7
Compound: CN1Cc2c(Cl)cc(Cl)cc2C(c2cccc(S(=O)(=O)NCCOCCOCCOCCNC(=O)NCCCCNC(=O)NCCOCCOCCOCCNS(=O)(=O)c3cccc(C4CN(C)Cc5c(Cl)cc(Cl)cc54)c3)c2)C1 (stereo not shown) [Example 208, N,N′-(13,20-dioxo-3,6,9,24,27,30-hexaoxa-12,14,19,21-tetraazadotriacontane-1,32-diyl)bis(3-(6,8-dichloro-2-methyl-1,2,3,4-tetrahydroisoquinolin-4-yl)benzenesulfonamide)]

AUC [1]: < 8.3 ng·h/mL
Cmax [1]: < 4 ng/mL
IC50 (rat NHE-3; [2]): < 100 nM
Compound: CN1Cc2c(Cl)cc(Cl)cc2C(c2cccc(S(=O)(=O)NCCOCCOCCOCCNC(=O)c3ccc(C(=O)NCCOCCOCCOCCNS(=O)(=O)c4cccc(C5CN(C)Cc6c(Cl)cc(Cl)cc65)c4)cc3)c2)C1 (stereo not shown) [Example 216, N1,N4-bis(2-(2-(2-(2-(3-(6,8-dichloro-2-methyl-1,2,3,4-tetrahydroisoquinolin-4-yl)phenylsulfonamido)ethoxy)ethoxy)ethoxy)ethyl)terephthalamide]

IC50 (rat NHE-3; [2]): 1000 to 10000 nM
Compound: CN1Cc2c(Cl)cc(Cl)cc2C(c2cccc(S(=O)(=O)NCCOCCOCCOCCNS(=O)(=O)c3cccc(S(=O)(=O)NCCOCCOCCOCCNS(=O)(=O)c4cccc(C5CN(C)Cc6c(Cl)cc(Cl)cc65)c4)c3)c2)C1 (stereo not shown) [Example 219, N1,N3-bis(2-(2-(2-(2-(3-(6,8-dichloro-2-methyl-1,2,3,4-tetrahydroisoquinolin-4-yl)phenylsulfonamido)ethoxy)ethoxy)ethoxy)ethyl)benzene-1,3-disulfonamide]

AUC [1]: < 5 ng·h/mL
Cmax [1]: < 5 ng/mL
rat NHE-3 Average pIC50 (rat NHE-3; [2]): 6 to 7
Compound: CN1Cc2c(Cl)cc(Cl)cc2C(c2cccc(S(=O)(=O)NCCOCCOCCOCCNC(=O)c3cccc(C(=O)NCCOCCOCCOCCNS(=O)(=O)c4cccc(C5CN(C)Cc6c(Cl)cc(Cl)cc65)c4)c3)c2)C1 (stereo not shown) [Example 228, N1,N3-bis(2-(2-(2-(2-(3-(6,8-dichloro-2-methyl-1,2,3,4-tetrahydroisoquinolin-4-yl)phenylsulfonamido)ethoxy)ethoxy)ethoxy)-ethyl)isophthalamide]
